Measurements reported in article PMC11590026, “Synthesis, enzyme inhibition, and docking studies of new schiff bases of disalicylic acid methylene-based derivatives as dual-target antibacterial agents” (Frontiers in Chemistry, 2024).
Values after ≈ are worked out from the molar mass of the structure shown. Like-named read-outs stand apart in the source and are kept apart here.

Experiments:
[1] = test system: B. subtilis; experiment: MIC/MBC assay, twofold serial dilution; assay type: cell-based, Bacillus subtilis
Experimental: (§1) The results of this in vitro assay test are consistent with the findings of the antimicrobial sensitivity test. […] It has lower antimicrobial activity than ciprofloxacin against all pathogens tested.
(§2) The MBC differs from the MIC. […]
(§3) 4.2.2. Minimum inhibitory concentration assay
(§4) In 96-well microtiter plates and […] of fresh bacterial culture of a single McFarland unit overnight, a double serial dilution of each compound […] in sterile standard saline were prepared to every single source well. Ciprofloxacin antibiotic (5 mg / mL - 1) and normal saline were included as standard reference in each assay. The plates were incubated at 37 0C overnight. As an indicator of bacterial growth, […] of p-iodonitrotetrazolium violet (INT) was added to each well and incubated at 37 0C for 30 […]
(§5) min. MIC values are recorded as the lowest concentration of the extract that completely inhibited bacterial growth that is clear well. The colorless tetrazolidium salt acts as an electron accepter and is reduced to a red colored formazan product by biological activity organisms. Where bacterial growth was inhibited, the solution in the well remained clear after incubation with INT. […]

[2] = test system: P. aeruginosa; experiment: MIC/MBC assay, twofold serial dilution; assay type: cell-based, Pseudomonas aeruginosa
Experimental: as §1, §2, §3, §4, §5

[3] = test system: Gram-positive and Gram-negative bacteria; experiment: Disk diffusion inhibition zone, all bacterial pathogens tested; assay type: cell-based
Experimental: (§6) The antimicrobial effects of the currently synthesized Schiff bases (6a-l) were tested against two Gram-positive bacteria (S. aureus and B. subtilis), two Gram-negative bacteria (E. coli and P. aeruginosa), and two strains of fungus (A. flavus and C. albicans). The modified disk diffusion method ([Alkhaldi et al., 2019]; [Manso et al., 2021]) was used to determine the inhibition zones (IZ, mm/mL) and the minimal inhibitory concentration (MIC, nM). Ciprofloxacin and Fluconazole was used as positive controls. Tables 1–3 display the findings.

[4] = test system: E. coli; experiment: MIC/MBC assay, twofold serial dilution; assay type: cell-based, Escherichia coli
Experimental: as §1, §2, §3, §4, §5

[5] = test system: S. aureus; experiment: MIC/MBC assay, twofold serial dilution; assay type: cell-based, Staphylococcus aureus
Experimental: as §1, §2, §3, §4, §5

[6] = test system: A. flavus; experiment: Modified disk diffusion, inhibition zone; assay type: cell-based, Aspergillus flavus
Experimental: as §6, with “findings. […]” for “findings.”
(§7) incubated at 35-37 °C for 24-48 hours and yeast as Candida albicans (ATCC 7102) incubated at 30 °C for 24-48 hours and, then the diameters of the inhibition zones were measured in millimeters. Standard discs of ciprofloxacin (Antibacterial agent), Fluconazole (Antifungal agent) served as positive controls for antimicrobial activity but filter discs impregnated with 10 µl of solvent (distilled water, chloroform, DMSO) were used as a negative control. Blank paper disks (Schleicher & Schuell, Spain) with a diameter of 8.0 mm were impregnated 10µ of tested concentration of the stock solutions. When a filter paper disc impregnated with a tested chemical is placed on agar the chemical will diffuse from the disc into the agar. This diffusion will place the chemical in the agar only around the disc. […]

[7] = test system: C. albicans; experiment: Modified disk diffusion, inhibition zone; assay type: cell-based, Candida albicans
Experimental: as §6, with “findings. […]” for “findings.”
as §7

[8] = test system: S. aureus; design: method as in Al-Wahaibi et al., 2024; settings: ref Al-Wahaibi et al., 2024; cited from earlier work
[9] = test system: E. coli; design: method as in Al-Wahaibi et al., 2024; settings: ref Al-Wahaibi et al., 2024; cited from earlier work
[10] = test system: P. aeruginosa; design: method as in Al-Wahaibi et al., 2024; settings: ref Al-Wahaibi et al., 2024; cited from earlier work
[11] = molecular target: Topoisomerase IV; settings: earlier work; ref Al-Wahaibi et al., 2024; cited from earlier work
[12] = test system: B. subtilis; design: method as in Al-Wahaibi et al., 2024; settings: ref Al-Wahaibi et al., 2024; cited from earlier work
[13] = test system: B. subtilis; experiment: Modified disk diffusion, inhibition zone; assay type: cell-based, Bacillus subtilis; settings: B. subtilis (G+)
Experimental: as §6, with “findings. […]” for “findings.”
as §7

[14] = test system: E. coli; experiment: Modified disk diffusion, inhibition zone; assay type: cell-based, Escherichia coli; settings: E. coli (G−)
Experimental: as §6, with “findings. […]” for “findings.”
as §7

[15] = test system: P. aeruginosa; experiment: Modified disk diffusion, inhibition zone; assay type: cell-based, Pseudomonas aeruginosa; settings: P. aeruginosa (G−)
Experimental: as §6, with “findings. […]” for “findings.”
as §7

[16] = test system: C. albicans; experiment: Antifungal assay (MIC/MFC), twofold serial dilution
[17] = test system: S. aureus; experiment: Modified disk diffusion, inhibition zone; assay type: cell-based, Staphylococcus aureus; settings: S. aureus (G+)
Experimental: as §6, with “findings. […]” for “findings.”
as §7

[18] = test system: A. flavus; experiment: Antifungal assay (MIC/MFC), twofold serial dilution; settings: for MIC: A. flavus
[19] = test system: A. flavus and C. albicans; experiment: Disk diffusion inhibition zone, both fungi; assay type: cell-based; settings: against A. flavus and C. albicans
Experimental: as §6

[20] = molecular target: S. aureus topoisomerase IV; settings: internal standard value stated in the supplementary method; cited from earlier work

O=C(O)c1cn(C2CC2)c2cc(N3CCNCC3)c(F)cc2c1=O [Ciprofloxacin, reference compound]
MBC [1]: 0.019 ± 0.001 µM (≈ 0.0063 µg/mL) | MIC [1]: 0.01 ± 0.001 µM (≈ 0.00331 µg/mL) | MBC ([1]; Bacillus subtilis, read-out: MBC): 0.019 µM (≈ 0.0063 µg/mL) | MIC ([1]; Bacillus subtilis, read-out: MIC): 0.01 µM (≈ 0.00331 µg/mL) | MBC [2]: 0.09 ± 0.006 µM (≈ 0.0298 µg/mL) | MBC ([2]; Pseudomonas aeruginosa, read-out: MBC): 0.09 µM (≈ 0.0298 µg/mL) | MIC ([2]; Pseudomonas aeruginosa, read-out: MIC): 0.06 ± 0.005 µM (≈ 0.0199 µg/mL) | Inhibition zones (IZ) [3]: 40 mm | MBC [4]: 0.09 ± 0.006 µM (≈ 0.0298 µg/mL) | MBC ([4]; Escherichia coli, read-out: MBC): 0.09 µM (≈ 0.0298 µg/mL) | MIC ([4]; Escherichia coli, read-out: MIC): 0.06 ± 0.004 µM (≈ 0.0199 µg/mL) | MBC [5]: 0.045 ± 0.002 µM (≈ 0.0149 µg/mL) | MIC [5]: 0.03 ± 0.002 µM (≈ 0.00994 µg/mL) | MBC ([5]; Staphylococcus aureus, read-out: MBC): 0.045 µM (≈ 0.0149 µg/mL) | MIC ([5]; Staphylococcus aureus, read-out: MIC): 0.03 µM (≈ 0.00994 µg/mL) | Inhibition zone (IZ) diameter [6]: NA (NA: no activity (8 mm)) | Inhibition zone (IZ) diameter [7]: NA (NA: no activity (8 mm))

COc1ccccc1/C=N/NC(=O)c1cc(Cc2ccc(O)c(C(=O)N/N=C/c3ccccc3OC)c2)ccc1O [Compound 5h]
MIC [8]: 0.030 µg/mL (≈ 0.0543 µM) | MIC [9]: 0.065 µg/mL (≈ 0.118 µM) | MIC [10]: 0.060 µg/mL (≈ 0.109 µM) | IC50 [11]: 3.5 µM | MIC [12]: 0.050 µg/mL (≈ 0.0905 µM) | Times less potent/effective than ciprofloxacin (MIC) [12]: five times less potent than ciprofloxacin

CN(C)c1ccc(/C=N/NC(=O)c2cc(Cc3ccc(O)c(C(=O)N/N=C/c4ccc(N(C)C)cc4)c3)ccc2O)cc1 [Compound 5i]
IC50 [11]: 5.8 µM | Times less potent/effective than ciprofloxacin (MIC) [12]: 7 times

OC(Cn1cncn1)(Cn1cncn1)c1ccc(F)cc1F [Fluconazole, reference compound]
Inhibition zone (IZ) diameter [13]: NA (NA: no activity (8 mm)) | Inhibition zone (IZ) diameter [14]: NA (NA: no activity (8 mm)) | Inhibition zone (IZ) diameter [15]: NA (NA: no activity (8 mm)) | MIC ([16]; C. albicans): 17.50 ± 1 µM (≈ 5.36 µg/mL) | MFC ([16]; Candida albicans): 35 ± 2 µM (≈ 10.7 µg/mL) | MIC ([16]; Candida albicans): 17.5 µM (≈ 5.36 µg/mL) | Inhibition zone (IZ) diameter [17]: NA (NA: no activity (8 mm)) | MIC [18]: 11.50 ± 1 µM (≈ 3.52 µg/mL) | MFC ([18]; Aspergillus flavus): 22.8 ± 1 µM (≈ 6.98 µg/mL) | MIC ([18]; Aspergillus flavus): 11.5 µM (≈ 3.52 µg/mL) | IZ values [19]: 40 mm

CO[C@@H]1[C@@H](OC(N)=O)[C@@H](O)[C@H](Oc2ccc3c(O)c(NC(=O)c4ccc(O)c(CC=C(C)C)c4)c(=O)oc3c2C)OC1(C)C [Novobiocin]
IC50 [20]: 26.7 µM
